From patent US9932637B2, “Genetic polymorphisms associated with cardiovascular disorders and drug response, methods of detection and uses thereof” (CELERA CORPORATION, priority 2003, dated 2018)

System: patients with prior myocardial infarction (CARE study)
Test: CARE: association of SNPs with pravastatin treatment in cardiovascular events prevention (logistic regression, odds ratio pravastatin vs placebo by genotype; Table 8)
Assay type: in vivo, human
Details: for Definite Nonfatal MI, n/total (%) / Fatal/Nonfatal MI (def & prob), n/total (%) / MI (Fatal/Nonfatal), n/total (%) / Nonfatal MI (def & prob), n/total (%): BCL2A1 hCV7509650, All Patients
Description: In order to identify genetic markers associated with acute coronary events (e.g. MI, stroke, unstable angina, congestive heart failure, etc.) or response to statin treatment for the prevention of coronary events, samples from the Cholesterol and Recurrent Events (CARE) study (a randomized multicentral double-blinded trial on secondary prevention of acute coronary events with pravastatin) (Sacks et al., 1991, Am. J. Cardiol. 68: 1436-1446) were genotyped. A well-documented myocardial infarction (MI) was one of the enrollment criteria for entry into the CARE study. Patients were enrolled in the CARE trial from 80 participating study centers. […] Patients were randomized to receive either 40 mg of pravastatin once daily or a matching placebo. The primary endpoint of the trial was death from coronary heart disease and the median duration of follow-up was 5.0 years (range, 4.0 to 6.2 years). […] Secondary endpoints of other related cardiovascular or metabolic disease events, and changes in clinical variables were also recorded in pravastatin-treated and placebo groups. All individuals included in the study had signed a written informed consent form and the study protocol was approved by the respective Institutional Review Boards (IRBs).
For genotyping SNPs in CARE patient samples, DNA was extracted from blood samples using conventional DNA extraction methods such as the QIA-amp kit from Qiagen. Genotypes were obtained on an ABI PRISM® 7900HT Sequence Detection PCR system (Applied Biosystems, Foster City, Calif.) by kinetic allele-specific PCR, similar to the method described by Germer et al. (Germer S., Holland M. J., Higuchi R. 2000, Genome Res. 10: 258-266).
Statistical analysis for association of SNPs with pravastatin treatment in cardiovascular events prevention (Table 8) was carried out using an overall logistic regression model that included an intercept, a parameter for the effect of a genotype containing two rare alleles versus a genotype containing no rare alleles, a parameter for the effect of a genotype containing one rare allele versus a genotype containing no rare alleles, a parameter for the effect of use of pravastatin versus the use of placebo, and parameters for the interaction effects between SNP genotypes and pravastatin use. The test of the overall model is a chi-square test with two degrees of freedom for analyses containing all three genotypes, and one degree of freedom for analyses containing two genotypes.
Effect sizes were estimated through odds ratios (pravastatin group versus placebo) for carriers of each genotype (groups of 0, 1, and 2 minor allele carriers). The effect was considered to be significant if p-value for testing whether any of the interactions between SNP genotypes and pravastatin use were <0.05. […] Odds ratios less than one indicate that the specific SNP allele has a protective effect and odds ratios greater than one indicate that the specific SNP allele has an adverse effect.

[1] = CCL4 hCV12120554, All Patients, 0 Rare Alleles, Prava arm
[2] = CCL4 hCV12120554, All Patients, 1 Rare Allele, Prava arm

SMILES: CC[C@H](C)C(=O)O[C@H]1C[C@H](O)C=C2C=C[C@H](C)[C@H](CC[C@@H](O)C[C@@H](O)CC(=O)O)[C@H]21 [pravastatin]
- Odds ratio pravastatin vs placebo (APOE hCV905013, All Patients, Nonfatal MI (Probable/Definite), 1 rare allele): 0.91
- Odds ratio pravastatin vs placebo (APOE hCV905013, All Patients, Nonfatal MI (Probable/Definite), 2 rare alleles): 0.49
- Definite Nonfatal MI, n/total (%) (0 Rare Alleles, Prava arm): (6.3%)
- Fatal/Nonfatal MI (def & prob), n/total (%) (0 Rare Alleles, Prava arm): (8.7%)
- MI (Fatal/Nonfatal), n/total (%) (0 Rare Alleles, Prava arm): (9.1%)
- Nonfatal MI (def & prob), n/total (%) (0 Rare Alleles, Prava arm): (8.1%)
- Definite Nonfatal MI, n/total (%) (1 Rare Allele, Prava arm): (7.9%)
- Fatal/Nonfatal MI (def & prob), n/total (%) (1 Rare Allele, Prava arm): (11.4%)
- MI (Fatal/Nonfatal), n/total (%) (1 Rare Allele, Prava arm): (11.4%)
- Nonfatal MI (def & prob), n/total (%) (1 Rare Allele, Prava arm): (10.2%)
- Definite Nonfatal MI, n/total (%) (2 Rare Alleles, Prava arm): (3.9%)
- Fatal/Nonfatal MI (def & prob), n/total (%) (2 Rare Alleles, Prava arm): (6.9%)
- MI (Fatal/Nonfatal), n/total (%) (2 Rare Alleles, Prava arm): (6.9%)
- Nonfatal MI (def & prob), n/total (%) (2 Rare Alleles, Prava arm): (6.9%)
- Odds ratio pravastatin vs placebo (BCL2A1 hCV7509650, All Patients, Definite Nonfatal MI, 0 rare alleles): 0.55
- Odds ratio pravastatin vs placebo (BCL2A1 hCV7509650, All Patients, Definite Nonfatal MI, 1 rare allele): 1.09
- Odds ratio pravastatin vs placebo (BCL2A1 hCV7509650, All Patients, Definite Nonfatal MI, 2 rare alleles): 0.35
- Odds ratio pravastatin vs placebo (BCL2A1 hCV7509650, All Patients, Fatal/Nonfatal MI (def & prob), 0 rare alleles): 0.51
- Odds ratio pravastatin vs placebo (BCL2A1 hCV7509650, All Patients, Fatal/Nonfatal MI (def & prob), 1 rare allele): 1.00
- Odds ratio pravastatin vs placebo (BCL2A1 hCV7509650, All Patients, Fatal/Nonfatal MI (def & prob), 2 rare alleles): 0.46
- Odds ratio pravastatin vs placebo (BCL2A1 hCV7509650, All Patients, MI (Fatal/Nonfatal), 0 rare alleles): 0.53
- Odds ratio pravastatin vs placebo (BCL2A1 hCV7509650, All Patients, MI (Fatal/Nonfatal), 1 rare allele): 0.99
- Odds ratio pravastatin vs placebo (BCL2A1 hCV7509650, All Patients, MI (Fatal/Nonfatal), 2 rare alleles): 0.46
- Odds ratio pravastatin vs placebo (BCL2A1 hCV7509650, All Patients, Nonfatal MI (def & prob), 0 rare alleles): 0.52
- Odds ratio pravastatin vs placebo (BCL2A1 hCV7509650, All Patients, Nonfatal MI (def & prob), 1 rare allele): 1.09
- Odds ratio pravastatin vs placebo (BCL2A1 hCV7509650, All Patients, Nonfatal MI (def & prob), 2 rare alleles): 0.56
- Cardiovascular Mortality, n/total (%) [1]: (4.0%)
- Fatal Atherosclerotic Cardiovascular Disease, n/total (%) [1]: (4.0%)
- Fatal Coronary Heart Disease, n/total (%) [1]: (3.5%)
- Fatal/Nonfatal Atherosclerotic CV Disease, n/total (%) [1]: (34.4%)
- Total Coronary Heart Disease Events, n/total (%) [1]: (30.5%)
- Total Mortality, n/total (%) [1]: (6.0%)
- Cardiovascular Mortality, n/total (%) [2]: (2.5%)
- Fatal Atherosclerotic Cardiovascular Disease, n/total (%) [2]: (2.2%)
- Fatal Coronary Heart Disease, n/total (%) [2]: (2.2%)
- Fatal/Nonfatal Atherosclerotic CV Disease, n/total (%) [2]: (29.9%)
- Total Coronary Heart Disease Events, n/total (%) [2]: (25.1%)
- Total Mortality, n/total (%) [2]: (4.0%)
- Odds ratio pravastatin vs placebo (CCL4 hCV12120554, All Patients, Cardiovascular Mortality, 0 rare alleles): 1.30
- Odds ratio pravastatin vs placebo (CCL4 hCV12120554, All Patients, Cardiovascular Mortality, 1 rare allele): 0.31
- Odds ratio pravastatin vs placebo (CCL4 hCV12120554, All Patients, Fatal Atherosclerotic Cardiovascular Disease, 0 rare alleles): 1.30
- Odds ratio pravastatin vs placebo (CCL4 hCV12120554, All Patients, Fatal Atherosclerotic Cardiovascular Disease, 1 rare allele): 0.28
- Odds ratio pravastatin vs placebo (CCL4 hCV12120554, All Patients, Fatal Coronary Heart Disease, 0 rare alleles): 1.28
- Odds ratio pravastatin vs placebo (CCL4 hCV12120554, All Patients, Fatal Coronary Heart Disease, 1 rare allele): 0.31
- Odds ratio pravastatin vs placebo (CCL4 hCV12120554, All Patients, Fatal/Nonfatal Atherosclerotic CV Disease, 0 rare alleles): 0.86
- Odds ratio pravastatin vs placebo (CCL4 hCV12120554, All Patients, Fatal/Nonfatal Atherosclerotic CV Disease, 1 rare allele): 0.55
- Odds ratio pravastatin vs placebo (CCL4 hCV12120554, All Patients, Total Coronary Heart Disease Events, 0 rare alleles): 0.87
- Odds ratio pravastatin vs placebo (CCL4 hCV12120554, All Patients, Total Coronary Heart Disease Events, 1 rare allele): 0.55
- Odds ratio pravastatin vs placebo (CCL4 hCV12120554, All Patients, Total Mortality, 0 rare alleles): 1.17
- Odds ratio pravastatin vs placebo (CCL4 hCV12120554, All Patients, Total Mortality, 1 rare allele): 0.40
- Total Coronary Heart Disease Events, n/total (%) (CCL11 hCV7449808, All Patients, 0 Rare Alleles, Prava, n/total 310/1025): (30.2%)
- Fatal/Non-fatal Atherosclerotic CV Disease, n/total (%) (CCL11 hCV7449808, All Patients, 0 Rare Alleles, Prava, n/total 359/1025): (35.0%)
- Hosp. for Cardiovascular Disease, n/total (%) (CCL11 hCV7449808, All Patients, 0 Rare Alleles, Prava, n/total 423/1025): (41.3%)
- Total Cardiovascular Disease Events, n/total (%) (CCL11 hCV7449808, All Patients, 0 Rare Alleles, Prava, n/total 436/1025): (42.5%)
- Total Coronary Heart Disease Events, n/total (%) (CCL11 hCV7449808, All Patients, 1 Rare Allele, Prava, n/total 127/448): (28.3%)
- Fatal/Non-fatal Atherosclerotic CV Disease, n/total (%) (CCL11 hCV7449808, All Patients, 1 Rare Allele, Prava, n/total 139/448): (31.0%)
- Hosp. for Cardiovascular Disease, n/total (%) (CCL11 hCV7449808, All Patients, 1 Rare Allele, Prava, n/total 176/448): (39.3%)
- Total Cardiovascular Disease Events, n/total (%) (CCL11 hCV7449808, All Patients, 1 Rare Allele, Prava, n/total 181/448): (40.4%)
